Measurements published in patent publication US20170095565A1, “CHEMICALLY MODIFIED SMALL MOLECULES” (Nektar Therapeutics, priority 2003, published 2017).
In brackets after ≈: the same amount, converted by molar mass. Read-outs that look alike come from different tables or passages of the source.

Tests used:
Mu-opiate = Mu-opiate (Homo sapiens, UniProt P35372); settings: read-out: IC50, Mu-opiate binding activity
[1] = Solubility of tested compounds (Table 1)
μ-Opiate Receptors = μ-Opiate Receptors (Homo sapiens, UniProt P35372); assay: biochemical; type: biochemical
Chain of μ-Opiate Receptors (P35372 whole entry): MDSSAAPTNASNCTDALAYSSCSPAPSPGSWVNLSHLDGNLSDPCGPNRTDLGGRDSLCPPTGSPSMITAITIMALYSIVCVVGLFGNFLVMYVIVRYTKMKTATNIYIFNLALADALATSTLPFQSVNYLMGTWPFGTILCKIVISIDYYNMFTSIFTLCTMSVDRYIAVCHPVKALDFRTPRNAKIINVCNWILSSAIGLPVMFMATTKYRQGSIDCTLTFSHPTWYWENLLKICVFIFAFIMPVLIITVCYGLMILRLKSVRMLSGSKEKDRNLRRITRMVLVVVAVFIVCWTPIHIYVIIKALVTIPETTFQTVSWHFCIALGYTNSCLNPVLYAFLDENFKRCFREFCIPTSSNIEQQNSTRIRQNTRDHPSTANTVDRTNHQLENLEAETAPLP
Description: In the table above, for each compound, the bioactivity is provided as a measure of the relative bioactivity of each of the various PEG conjugates in comparison to parent drug. The EC50 is the concentration of agonist that provokes a response halfway between the baseline and maximum response in a standard dose-response curve.

[2] = In situ brain perfusion, blood-brain barrier uptake; settings: for Normalized Brain Uptake Rate (Mean ± SD): normalized to 5 μM dosing solution, 20 mL/min perfusion rate, 30 sec; for Reduction in brain uptake rate (BUR) compared to the parent compound (factor / times): vs parent drug
Description: As utilized for these experiments, the in situ brain perfusion technique employed the intact rat brain to (i) determine drug permeation across the BBB under normal physiological conditions, and (ii) to study transport mechanisms such as passive diffusion verses carrier mediated transport.
Perfusion was performed using the single time-point method. Briefly, the perfusion fluid (perfusate) containing the test compound(s) was infused into rats via the left external carotid artery at a constant rate by an infusion pump (20 mL/min). Perfusion flow rate was set to completely take over fluid flow to the brain at normal physiologic pressure (80-120 mm Hg). The duration of the perfusion was 30 seconds. Immediately following the perfusion, the brain vasculature was perfused for an additional 30 seconds with drug-free perfusate to remove residual drug. The pump was turned off and the brain was then immediately removed from the skull. Left-brain samples from each rat were first weighed and then homogenized using a Polytron homogenizer. Four (4) mL of 20% methanol was added to each rat brain for homogenization. After homogenization, the total volume of homogenate was measured and recorded.
A measured amount of the homogenate was diluted with organic solvent and subsequently centrifuged. The supernatant was removed, evaporated in a stream of nitrogen and reconstituted and analyzed by LC/MS/MS. Quantification of drug concentrations in brain homogenate was performed against calibration curves generated by spiking the drugs into blank (i.e. drug-free) brain homogenate. Analysis of the drug concentrations in brain homogenates was carried out in triplicate, and the values were used to calculate the brain uptake rate in pmole per gram of rat brain per second of perfusion.
All the data was normalized to a 5 μM dosing solution at 20 mL/min perfusion rate for 30 sec.

[3] = Oral bioavailability: plasma concentration after oral gavage; type: in vivo, Sprague Dawley rats; settings: rats
Description: Female Sprague Dawley® rats (150-200 g) were obtained from Harlan Labs. […] The animals were fasted overnight (day −1), but water was provided ad libitum.
On the morning of dosing (day 0), each rat was weighed and the cannulas flushed with heparin (1000 U/mL). With the aid of a feeding tube, the animals were then dosed orally (gavage) with aqueous formulations containing either the PEGylated or the free drug. The dose was determined on a mg/kg body weight basis. […] At specific time intervals (1, 2 and 4 hours), blood samples (approximately 1.0 mL) were removed through the cannula, placed in 1.5 mL centrifuge tubes containing 14 μL of heparin, mixed and centrifuged to separate the plasma. The plasma samples were frozen (<−70° C.) until assayed. The plasma samples were purified by a precipitation technique and the analyte extracted and assayed using a high performance liquid chromatography (LC) method with a mass selective detector (MSD). […] When appropriate, an internal standard was used in the analysis.

[4] = PEGylated compounds normalized to 1 mg/kg dose

Chain of Mu-opiate (P35372 whole entry): as above

For `C=CCN1CC[C@]23c4c5ccc(O)c4O[C@H]2[C@@H](OCCOCCOCCOCCOCCOCCOCCOCCOCCOC)CC[C@@]3(O)[C@H]1C5` (single isomer, unassigned) [α isomer of PEG9-Nal], which IC50 (Mu-opiate; naloxone series of compounds) is on record?
The IC50 was 64.4 nM.

What about the Solubility [1] of the same compound?
Its Solubility is “soluble”.

Which EC50 (μ-Opiate Receptors; μ-opiate receptors, in-vitro) does the source give for `C=CCN1CCC23c4c5ccc(O)c4OC2C(O)CCC3(O)C1C5` (single isomer, unassigned) [α-6-naloxol, reference compound] here?
Its EC50 is 2 nM.

Which EC50 (μ-Opiate Receptors; μ-opiate receptors, in-vitro) does the source give for `C=CCN1CCC23c4c5ccc(O)c4OC2C(O)CCC3(O)C1C5` (single isomer, unassigned) [β-6-naloxol, reference compound] here?
The EC50 was 10.8 nM.

With `CC1=C(/C=C/C(C)=C/C=C/C(C)=C\C(=O)O)C(C)(C)CCC1` [13-cis-Retinoic Acid, 13-cis-retinoic acid, reference compound] as the compound, how does the “Normalized Brain Uptake Rate (Mean ± SD)” value [2] read?
The value was 102.54 ± 37.31 pmole/gm brain/sec.

And the “Mean Plasma Concentration ± SD, 1 hr” value ([3]; normalized to a 6 mg/kg dose)?
Its value is 43.3 ± 24.0 ng/mL.

And the “Mean Plasma Concentration ± SD, 2 hr” value ([3]; normalized to a 6 mg/kg dose)?
The value was 23.3 ± 14.8 ng/mL.

And the Solubility [1]?
Its Solubility is 0.47 µM (≈ 0.141 µg/mL).

Which results are given for `C=CCN1CC[C@]23c4c5ccc(O)c4O[C@H]2C(=O)CC[C@@]3(O)[C@H]1C5` [Naloxone, naloxone, reference compound]?
Normalized Brain Uptake Rate (Mean ± SD) [2]: 15.64 ± 3.54 pmole/gm brain/sec; Percentage of Active Remaining After Incubation with Liver Microsomes (0 min): 100.0%; Percentage of Active Remaining After Incubation with Liver Microsomes (20 min): 47.1%; Percentage of Active Remaining After Incubation with Liver Microsomes (40 min): 27.6%; Percentage of Active Remaining After Incubation with Liver Microsomes (60 min): 15.6%

For `COCCOCCOCCNC(=O)\C=C(C)/C=C/C=C(C)/C=C/C1=C(C)CCCC1(C)C` [PEG3-13-cis-RA, CH3(OCH2CH2)3—NH-13-cis-Retinamide], which “Normalized Brain Uptake Rate (Mean ± SD)” value [2] is on record?
The value was 79.65 ± 20.91 pmole/gm brain/sec.

What about the “Mean Plasma Concentration ± SD, 1 hr” value ([3]; normalized to a 6 mg/kg dose) of the same compound?
Its value is 131.8 ± 55.0 ng/mL.

And the “Mean Plasma Concentration ± SD, 2 hr” value ([3]; normalized to a 6 mg/kg dose)?
Its value is 158.0 ± 133.0 ng/mL.

And the Solubility [1]?
The Solubility was 3.13 µM (≈ 1.39 µg/mL).

With `C=CCN1CC[C@]23c4c5ccc(O)c4O[C@H]2C(OCCOCCOCCOC)CC[C@@]3(O)[C@H]1C5` (some centres unmarked) [PEG3-Nal, 6-CH3—(OCH2CH2)3-Naloxol] as the compound, how does the “Normalized Brain Uptake Rate (Mean ± SD)” value [2] read?
Its value is 4.67 ± 3.57 pmole/gm brain/sec.

For `COCCOCCOCCOCCOCCNC(=O)\C=C(C)/C=C/C=C(C)/C=C/C1=C(C)CCCC1(C)C` [PEG5-13-cis-RA, CH3—(OCH2CH2)5—NH-13-cis-retinamide], which “Normalized Brain Uptake Rate (Mean ± SD)” value [2] is on record?
The value was 58.49 ± 13.44 pmole/gm brain/sec.

And the “Mean Plasma Concentration ± SD, 1 hr” value ([3]; normalized to a 6 mg/kg dose)?
The value was 77.7 ± 31.6 ng/mL.

And the “Mean Plasma Concentration ± SD, 2 hr” value ([3]; normalized to a 6 mg/kg dose)?
The value was 61.6 ± 57.1 ng/mL.

What about the Solubility [1] of the same compound?
The Solubility was “soluble”.

With `C=CCN1CC[C@]23c4c5ccc(O)c4O[C@H]2[C@H](OCCOCCOCCOCCOCCOC)CC[C@@]3(O)[C@H]1C5` [PEG5-Nal, α,β-6-CH3—(OCH2CH2)5—O-naloxol] as the compound, how does the “Normalized Brain Uptake Rate (Mean ± SD)” value [2] read?
Its value is 0.96 ± 0.36 pmole/gm brain/sec.

What about the “Reduction in brain uptake rate (BUR) compared to the parent compound (factor / times)” value (“Reduction … (factor / times)” below) [2] of the same compound?
Its value is 16.

Which “Normalized Brain Uptake Rate (Mean ± SD)” value [2] does the source give for `COCCOCCOCCOCCOCCOCCOCCNC(=O)\C=C(C)/C=C/C=C(C)/C=C/C1=C(C)CCCC1(C)C` [PEG7-13-cis-RA, CH3—(OCH2CH2)7—NH-13-cis-Retinamide] here?
Its value is 24.15 ± 1.49 pmole/gm brain/sec.

What about the “Reduction … (factor / times)” value [2] of the same compound?
Its value is “four”.

What about the “Mean Plasma Concentration ± SD, 1 hr” value ([3]; normalized to a 6 mg/kg dose) of the same compound?
Its value is 44.0 ± 13.0 ng/mL.

What about the “Mean Plasma Concentration ± SD, 2 hr” value ([3]; normalized to a 6 mg/kg dose) of the same compound?
The value was 38.7 ± 4.2 ng/mL.

What about the Solubility [1] of the same compound?
Its Solubility is 58.3 µM (≈ 36.3 µg/mL).

For `C=CCN1CC[C@]23c4c5ccc(O)c4O[C@H]2[C@H](OCCOCCOCCOCCOCCOCCOCCOC)CC[C@@]3(O)[C@H]1C5` [PEG7-Nal, α,β-6-CH3—(OCH2CH2)7—O-naloxol], which “Reduction … (factor / times)” value [2] is on record?
Its value is 16.

With `COCCOCCOCCOCCOCCOCCOCCOCCOCCOCCOCCNC(=O)\C=C(C)/C=C/C=C(C)/C=C/C1=C(C)CCCC1(C)C` [PEG11-13-cis-RA, CH3—(OCH2CH2)11—NH-13-cis-Retinamide] as the compound, how does the “Normalized Brain Uptake Rate (Mean ± SD)” value [2] read?
The value was 17.77 ± 1.68 pmole/gm brain/sec.

What about the “Reduction … (factor / times)” value [2] of the same compound?
Its value is “five”.

And the “Mean Plasma Concentration ± SD, 1 hr” value ([3]; normalized to a 6 mg/kg dose)?
Its value is 21.8 ± 7.1 ng/mL.

And the “Mean Plasma Concentration ± SD, 2 hr” value ([3]; normalized to a 6 mg/kg dose)?
The value was 58.2 ± 43.5 ng/mL.

And the Solubility [1]?
Its Solubility is “soluble”.

Which “Percentage of Active Remaining After Incubation with Liver Microsomes” value (0 min) does the source give for `C=CCN1CC[C@]23c4c5ccc(O)c4O[C@H]2[C@@H](OCCOCCOCCOC)CC[C@@]3(O)[C@H]1C5` [α-PEG3-Nal, α-6-CH3—(OCH2CH2)3—O-naloxol] here?
Its value is 100.0%.

What about the “Percentage of Active Remaining After Incubation with Liver Microsomes” value (20 min) of the same compound?
Its value is 64.8%.

And the “Percentage of Active Remaining After Incubation with Liver Microsomes” value (40 min)?
Its value is 51.7%.

And the “Percentage of Active Remaining After Incubation with Liver Microsomes” value (60 min)?
Its value is 45.7%.

And the “Bioactivity relative to the parent compound” value (μ-Opiate Receptors; from EC50 values)?
The value was “about 30%”.

And the EC50 (μ-Opiate Receptors; μ-opiate receptors, in-vitro)?
Its EC50 is 7.3 nM.

And the “Mean Plasma Concentration ± SD, 1 hr” value [3, 4]?
The value was 37.28 ± 4.99 ng/mL.

And the “Mean Plasma Concentration ± SD, 2 hr” value [3, 4]?
The value was 14.92 ± 5.27 ng/mL.

What about the IC50 (Mu-opiate) of the same compound?
The IC50 was 7.3 nM.

What about the Solubility [1] of the same compound?
The Solubility was “soluble”.

For `C=CCN1CC[C@]23c4c5ccc(O)c4O[C@H]2[C@H](OCCOCCOCCOCCOCCOC)CC[C@@]3(O)[C@H]1C5` [α-PEG5-Nal, α,β-6-CH3—(OCH2CH2)5—O-naloxol], which “Percentage of Active Remaining After Incubation with Liver Microsomes” value (rat, microsomes, 0 h) is on record?
The value was 100.0%.

And the “Percentage of Active Remaining After Incubation with Liver Microsomes” value (rat, microsomes, 20 min)?
Its value is 84.1%.

What about the “Percentage of Active Remaining After Incubation with Liver Microsomes” value (rat, microsomes, 40 min) of the same compound?
Its value is 75.6%.

And the “Percentage of Active Remaining After Incubation with Liver Microsomes” value (rat, microsomes, 1 h)?
The value was 69.2%.

And the EC50 (μ-Opiate Receptors)?
Its EC50 is 31.5 nM.

And the “Mean Plasma Concentration ± SD, 1 hr” value [3, 4]?
Its value is 27.37 ± 10.82 ng/mL.

And the “Mean Plasma Concentration ± SD, 2 hr” value [3, 4]?
The value was 15.38 ± 6.65 ng/mL.

And the IC50 (Mu-opiate)?
Its IC50 is 31.5 nM.

What about the Solubility [1] of the same compound?
The Solubility was “soluble”.

What does the source list for `C=CCN1CC[C@]23c4c5ccc(O)c4O[C@H]2[C@H](OCCOCCOCCOCCOCCOCCOCCOC)CC[C@@]3(O)[C@H]1C5` [α-PEG7-Nal, α,β-6-CH3—(OCH2CH2)7—O-naloxol]?
Normalized Brain Uptake Rate (Mean ± SD) ([2]; listed as PEG7-Nal (α isomer)): 0.94 ± 0.32 pmole/gm brain/sec; Percentage of Active Remaining After Incubation with Liver Microsomes (rat, microsomes, 0 h): 100.0%; Percentage of Active Remaining After Incubation with Liver Microsomes (rat, microsomes, 20 min): 87.4%; Percentage of Active Remaining After Incubation with Liver Microsomes (rat, microsomes, 40 min): 81.6%; Percentage of Active Remaining After Incubation with Liver Microsomes (rat, microsomes, 1 h): 76.9%; Mean Plasma Concentration ± SD, 1 hr [3, 4]: 40.08 ± 16.61 ng/mL; Mean Plasma Concentration ± SD, 2 hr [3, 4]: 39.51 ± 9.57 ng/mL; Solubility [1]: soluble

What does the source list for `C=CCN1CC[C@]23c4c5ccc(O)c4O[C@H]2[C@H](OCCOCCOCCOCCOCCOC)CC[C@@]3(O)[C@H]1C5` [β-PEG5-Nal, α,β-6-CH3—(OCH2CH2)5—O-naloxol]?
EC50 (μ-Opiate Receptors; μ-opiate receptors, in-vitro): 43.3 nM; Mean Plasma Concentration ± SD, 1 hr [3, 4]: 69.34 ± 15.03 ng/mL; Mean Plasma Concentration ± SD, 2 hr [3, 4]: 36.92 ± 15.84 ng/mL; IC50 (Mu-opiate; naloxone series of compounds): 43.3 nM; Solubility [1]: soluble

For `C=CCN1CC[C@]23c4c5ccc(O)c4O[C@H]2[C@H](OCCOCCOCCOCCOCCOCCOCCOC)CC[C@@]3(O)[C@H]1C5` [β-PEG7-Nal, α,β-6-CH3—(OCH2CH2)7—O-naloxol], which “Normalized Brain Uptake Rate (Mean ± SD)” value [2] is on record?
Its value is 0.70 ± 0.19 pmole/gm brain/sec.

And the “Mean Plasma Concentration ± SD, 1 hr” value [3, 4]?
Its value is 50.41 ± 36.44 ng/mL.

And the “Mean Plasma Concentration ± SD, 2 hr” value [3, 4]?
Its value is 50.08 ± 25.28 ng/mL.

What about the Solubility [1] of the same compound?
Its Solubility is “soluble”.
